This is an account of results in patent publication US11950594B2, “Methods and compositions for inhibiting formation of biofilms” (INSTITUTE OF MICROBIOLOGY, CHINESE ACADEMY OF SCIENCES, priority 2019, dated 2024).

One experiment has as its system Pseudomonas aeruginosa. Kind of experiment: Antibiotic susceptibility, filter paper method (inhibition area). Format: cell-based. The following applies: C9 5 mM in culture medium, versus control group. As for the experimental part:
In the experiment, the coumarin-chalcone compound C9 (5 mM) was added to a culture medium, and an inhibition area of the corresponding antibiotics was measured by a conventional filter paper method.

The subject of experiment [1] is Psl polysaccharide production. Description: Psl immunoblot analysis. The following applies: C9 5 mM, Jensen media, 37° C., 24 hours. Format: cell-based, Pseudomonas aeruginosa. On the procedure: Pseudomonas aeruginosa PAO1 was inoculated in Jensen media at 37° C. for 24 hours with shaking and treated with the coumarin-chalcone compound C9 (5 mM) or DMSO (5 mM), respectively. OD600 values of the overnight cultured bacterial solutions were measured, and a bacterial solution with an OD (optical density) of 10 was collected. The bacterial solution with the OD of 10 was a bacterial solution whose OD600 was 2 and the collected volume was 5 mL. The bacterial solution was centrifuged at 13000 r/min for 5 min and the corresponding supernatant was discarded. The obtained precipitate was dissolved in 100 μL of 0.5 M EDTA. Then the EDTA solution was boiled at 100° C. for 5 min and centrifuged, and the precipitate was discarded. The obtained supernatant was treated with proteinase K (final concentration, 0.5 mg/mL) for 1 h at 60° C., followed by inactivation of proteinase K for 30 min at 80° C. to obtain a polysaccharide extract. A volume of 3 μL of polysaccharide extract was spotted onto a nitrocellulose membrane and dried. After washing with TBST for 3 times, a blocking was done with 10% skimmed milk at room temperature for 1 h. The anti-Psl antibody (i.e., a primary antibody) (1:25,000 dilution) was added and then solution was treated at 25° C. for 1 h. […] Western blot data was quantitatively analyzed using Image Lab™ 5.1 software.

Another experiment relates to pslA::lacZ. Kind of experiment: pslA::lacZ transcription fusion (β-galactosidase activity). It counts as cell-based, Pseudomonas aeruginosa. The settings on record: FIG. 5. On the procedure:
1% inoculation amount of overnight cultured Pseudomonas aeruginosa (pslA::lacZ mutant strain) were respectively inoculated in Jensen media with and without coumarin-chalcone compounds C1-C12, and incubated at 37° C. until OD600 reached to 0.5. Bacteria from 1.5 ml culture aliquots were resuspended in 200 μl Z-buffer and frozen/thawed three times to lyses bacteria. Cell lysates were assayed for both β-galactosidase activities as well as for total proteins by BCA assay (Pierce, USA). All β-galactosidase activity units were normalized by total protein per ml aliquot.
The units of β-galactosidase activity may be determined according to Equation (1) as follows: Miller units=1000×(OD420−1.7×OD550)/(t×V×OD600) (1) where t denotes a time (unit: min), V denotes the volume (unit: mL).
About 500 bp of DNA fragments upstream of ATG start codon of pslA gene were cloned into a polyclonal site of mini-CTX lacZ vector (note that the selected promoter fragment cannot affect the frameshift mutation). A recombinant plasmid (e.g., pTH2) was transferred into Escherichia coli S17-1λ pir. Then activated PAO1 was inoculated into 5 mL of LBNS medium, and S17-1/pTH2 strain was inoculated into 5 mL of LB medium with tetracycline (Tet) ([…]), and both cultured overnight at 37° C. with 200 rpm. […]

Experiment [2] concerns Pseudomonas aeruginosa biofilm. Kind of experiment: MBEC of antibiotics, Calgary biofilm device. It counts as cell-based. The settings on record: treated with C9 5 mM, versus untreated group. On the procedure: MIC and MBEC values of a biofilm formed on a peg of a […] biofilm device (CGM and CBD) treated with the coumarin-chalcone compound C9 were measured according to methods (Innovotech) in MBECTM high throughput experimental operation manual. Biofilm treated with the coumarin-chalcone compound C9 (5 mM) was cultured in an antibiotic-containing medium in a 96-well plate for 24 h, and the MIC value was obtained by measuring the OD600 of planktonic cells of the above samples. To determine the MBEC value, the biofilm treated with the coumarin-chalcone compound C9 (5 mM) was cultured in an antibiotic-containing medium in a 96-well plate for 24 h, then the biofilm was ultrasonically crushed and subsequently incubated at 37° C. for another 24 hours. Biomass of newly formed biofilms was recorded to indicate the corresponding MBEC value.

A further experiment deals with intracellular c-di-GMP. Description: Intracellular c-di-GMP, direct, LC-MS/MS quantification. Format: cell-based, Pseudomonas aeruginosa. The following applies: FIG. 7. An excerpt: The intracellular c-di-GMP may control the conversion of bacterial lifestyle between plankton and biofilm. In order to analyze an effect of the coumarin-chalcone compound C9 on a concentration of the intracellular c-di-GMP, direct and indirect methods were used to measure the level of c-di-GMP in Pseudomonas aeruginosa.
C-di-GMP was directly extracted from PAO1 strain grown with or without the coumarin-chalcone compound C9. The intracellular c-di-GMP was directly measured by LC-MS/MS quantification.

Molecules are shown by their SMILES.

Regarding `COc1cccc(/C=C/C(=O)c2cc3ccccc3oc2=O)c1` [Compound C9], the “susceptibility of Pseudomonas aeruginosa to fluoroquinolone antibiotics (CIP)” value with Pseudomonas aeruginosa is “significantly higher”. Moreover, in experiment [1], the “reduction of Psl production” value stood at 60%. Besides, the “production of Psl at the transcription level (pslA::lacZ)” value in the experiment on pslA::lacZ is reported as “affected the production of Psl at the transcription level”. Also, in experiment [2], the “MBEC of a biofilm against ciprofloxacin” value is recorded as “significantly lower” and the “MBEC of a biofilm against tobramycin” value is reported as “significantly lower”. In addition, the “reduction on the c-di-GMP concentration” value with intracellular c-di-GMP is on record as 2 fold.
